These results are taken from patent publication US20030114498A1, “Remedies for malignant tumor-concomitant neurosis and azoor or analogous diseases thereof” (priority 2002, published 2003).

Data set [1] relates to AZOOR. To be noted: reported case, administration for two weeks; cited from earlier work.
In data set [2] the test system is apoptosis caused by CAR. The experiment in a line: Therapeutic effect on cancer-associated neuropathy: ERG in rats given anti-recoverin and anti-hsp70 antibodies into the vitreous body. The note with it: nilvadipine 3.2 mg/kg/day peritoneal for two weeks with antibody infusion into vitreous body; follow-up five weeks; 24 h light; FIG. 1. It counts as in vivo, Lewis rats. The protocol: Example of Experiment (Therapeutic Effect on Cancer-Associated Neuropathy)
Test animal: Lewis rats (8 weeks of age) Treatment group 5 animals (10 eyes) Control group 5 animals (10 eyes)
Photoenvironment: Apoptosis (cell death) was induced under light for 24 hours.
Test drugs: Nilvadipine (3.2 mg/kg/day) by peritoneal administration (dissolving solution) polyethylene glycol 400: ethanol:water=1:1:2 Predonine (0.6 μg/kg/day) by intramuscular injection (dissolving solution) PBS (phosphate buffer solution) Cyclosporine A (10 mg/kg/day) by intramuscular injection (dissolving solution) olive oil
Antibodies: anti-recoverin antibody (5 μl/eye) anti-hsp70 antibody (5 μl/eye)
Test drugs were administered for two weeks along with infusion of antibodies into vitreous body of the eye.
Follow-up observation was performed for five weeks after the start of administration. PBS alone was administered to the control group.
In FIG. 1, the vertical axis represents ERG (electroretinogram) amplitude, and the horizontal axis is the lapse of time in weeks. Δ: nilvadipine group; □: predonine group; ⋄: cyclosporin A group; and ◯: control group.

The subject of data set [3] is AZOOR. Description: Clinical case: therapeutic effect on AZOOR, static visual field examination (Humphrey visual field analyzer). The data set is classed as in vivo, human patient. The note with it: person. The source says:
Example of Clinical Trial (Therapeutic Effect on AZOOR)
The patient became aware of dark and blurred vision in the center of their visual field on Sep. 1, 1999, and visited Ohyachi Kyoritsu Eye Clinic on September 4 in the same year. […] ERG was subnormal and normal for the right and left eyes, respectively. […] FAG detected mild leakage of fluorescein from the optic disc of the right eye. In view of these observations, optic nerve disorder was suspected and the patient was made to visit a brain surgeon in the neighborhood to receive CT and MRT examinations. However, no abnormality was found. […] To treat the eye symptom, the clinic prescribed oral medications such as drug for ameliorating circulation for a while, but no improvement of visual field was observed. Thus, on Oct. 1, 1999, the patient was referred to the Department of ophthalmology at Sapporo Medical University, School of Medicine for close examination.
Visual acuity was Vd=1.2 and Vs=1.2. Although pupils were round and equal in size, the right eye was RAPD(+) but no oculomotor abnormalities were observed. […] In the static visual field examination, reduction of the sensitivity in the central visual field was observed.
Oral administration of prednisolone (40 mg/day) was started on Oct. 1, 1999. The patient became aware of dark and blurred vision also in the center of the visual field of their left eye on Oct. 20, 1999. […]

For data set [4] the following is noted: launched ten years ago; cited from earlier work.

Molecules are shown by their SMILES. “Also recorded” adds a separate entry of the source.

As to `Nc1nc2c(ncn2COCCO)c(=O)[nH]1` [aciclovir], the “progress of visual field defect in the other eye” value in data set [1] is recorded as “stopped”.

Consider `COC(=O)C1=C(C#N)NC(C)=C(C(=O)OC(C)C)C1c1cccc([N+](=O)[O-])c1` (centres unmarked) [nilvadipine, isopropyl 6-cyano-5-methoxycarbonyl-2-methyl-4-(3-nitrophenyl)-1,4-di hydropyridine-3-carboxylate ester], for which, in data set [2], the “ERG (electroretinogram) amplitude, effectiveness compared with the other test drugs” value was “more effective than predonine and cyclosporin A”. In addition, the “static visual field / visual sensitivity after nilvadipine” value in data set [3] (two months after start of oral nilvadipine (Depo-Medrol sub-Tenon's injection three days earlier), FIGS. 4 and 5) is listed as “remarkable improvement of visual sensitivity”. Further, the side effects result in data set [4] was “no noteworthy serious side effects”.

Turning to `C[C@]12C=CC(=O)C=C1CC[C@@H]1[C@@H]2[C@@H](O)C[C@@]2(C)[C@H]1CC[C@]2(O)C(=O)CO` [prednisolone], the “visual field defect under oral prednisolone” value in data set [3] (oral prednisolone 40 mg/day reduced to 10 mg/day, FIGS. 2 and 3) is “no amelioration of the visual field defect; also recorded: could not improve the visual field”.
